Values of other authors in patent US20250170128A1, “Obicetrapib and SGLT2 Inhibitor Combination” (NE[…] B.V. (Dutch Chamber of Commerce No. 5597 1946), priority 2021, published 2025).

Legend:
[1] = clinical studies
[2] = molecular target: T1, CETP (Homo sapiens, UniProt P11597); conditions: repeated daily dosages (once a day) as low as 2.5 mg
T1 construct: CETP is a plasma protein secreted primarily by liver and adipose tissue
T1 sequence (P11597 18-493): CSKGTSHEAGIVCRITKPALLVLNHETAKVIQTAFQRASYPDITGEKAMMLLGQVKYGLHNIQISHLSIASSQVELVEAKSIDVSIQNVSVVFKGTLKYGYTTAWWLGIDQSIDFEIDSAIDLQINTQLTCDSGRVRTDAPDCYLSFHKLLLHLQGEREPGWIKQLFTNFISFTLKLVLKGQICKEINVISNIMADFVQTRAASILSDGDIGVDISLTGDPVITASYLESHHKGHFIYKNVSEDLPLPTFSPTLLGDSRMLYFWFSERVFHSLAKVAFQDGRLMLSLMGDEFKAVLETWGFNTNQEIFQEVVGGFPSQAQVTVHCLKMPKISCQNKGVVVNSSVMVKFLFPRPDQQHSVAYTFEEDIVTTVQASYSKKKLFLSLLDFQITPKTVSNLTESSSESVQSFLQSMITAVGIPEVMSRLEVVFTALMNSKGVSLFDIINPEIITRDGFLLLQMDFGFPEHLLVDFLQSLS

CCOC(=O)N1c2ccc(C(F)(F)F)cc2[C@@H](N(Cc2cc(C(F)(F)F)cc(C(F)(F)F)c2)c2ncc(OCCCC(=O)O)cn2)C[C@H]1CC [compound of Formula (I), (2R,4S)-4-{[3,5-bis(trifluoromethyl)benzyl]-[5-(3-carboxypropoxy)pyrimidin-2-yl]amino}-2-ethyl-6-trifluoromethyl-3,4-dihydro-2H-quinoline-1-carboxylic acid ethyl ester]
serious side effects [1]: does not lead to serious side effects | tolerability [1]: well tolerated | CETP inhibition [2]: near complete CETP-inhibition
